According to patent US20260258370A1, “METHOD FOR OBTAINING A NEUROMUSCULAR ORGANOID AND USE THEREOF” (Universiteit Antwerpen, priority 2021, published 2026):

Assays:
Assay type in all cases: cell-based, human
[1] = test system: CMT1A organoids; assay: g-ratio of myelinated axons by transmission electron microscopy in CMT1A organoids; conditions: Day 25, TEM
[2] = test system: PI3K-Akt signaling pathway; assay: p-Akt/Akt protein level ratio normalized to β-actin in treated CMT1A iPSC-derived organoids; conditions: Day 25, normalized to β-actin
[3] = test system: CMT1A organoids; assay: Myelin periodic line distance (myelin compaction) by transmission electron microscopy in CMT1A organoids

shRNA-2: Short-hairpin RNA against human PMP22, region CDS (SEQ ID NO 10), Sigma Mission pLKO.1-library, lentivirally transduced (guide CCGGCCTGTTCTTCTGCCAACTCTTCTCGAGAAGAGTTGGCAGAAGAACAGGTTTTTG)
g-ratio of axons [1]: significantly increased the g-ratio | p-Akt/Akt ratio [2]: reduced p-Akt/Akt ratio could be reversed | myelin periodic line distance (myelin compaction) ([3]; high concentration (75 μL) of shRNA lentivirus): restored the myelin periodic line distance back to control levels | myelin periodic line distance (myelin compaction) ([3]; low concentration (25 μL) of shRNA lentivirus): partially improved myelin compaction
